From patent publication US20110044991A1, “METHODS AND COMPOSITIONS FOR TREATING LYMPHOMA AND MYELOMA” (IRM LLC, priority 2006, published 2011)
Where two headings read alike, the source gives them in different places.

Legend:
Eμ-Myc lymphoma cells [1] = assay: Luciferase assay and light microscopy of luciferased lymphoma cells on stromal layer; format: cell-based, mouse; conditions: for Response rate to cyclopamine treatment (responsive/tested cultures) / Response rate to cyclopamine treatment: Myc-lymphomas; for Response rate to cyclopamine treatment: >80% growth inhibition at 5 μM
Description: (§1) For Shh pathway inhibition on stroma, 6200 stroma cells were seeded per 96-well. After 24 hours 20,000 luciferased lymphoma cells were seeded on the stroma cells and 2 hours later compound or DMSO was added. Luciferase assay was performed with Bright-glow reagent as described. To generate cells overexpressing Hh pathway members, lymphoma cells were infected with Smo, Smo 535, Smo 562, Gli1 and Fused-pMSCV IRES GFP constructs and then sorted for GFP positive cells.
(§2) In order to investigate whether the Hh signalling pathway does indeed contribute to the survival and proliferation of lymphoma cells growing on an intact stromal layer, lymphoma cells were luciferased using a retrovirus expressing a puromycin/Luc fusion cassette. 2×10E4 lymphoma cells constitutively expressing luciferase were added to each 96-well containing a stromal layer (not expressing luciferase) isolated from Cdkn2a^−/− mice. A total of 34 individual Eμ-Myc-lymphomas and 8 Cdkn2a-lymphomas were tested. A luciferase assay was performed as a readout for cell viability and proliferation and results were also documented by light microscopy.

Cdkn2a−/− lymphoma cells = assay: Luciferase assay of luciferased lymphoma cells on stromal layer; format: cell-based, mouse; conditions: for Response rate to cyclopamine treatment (responsive/tested cultures) / Response rate to cyclopamine treatment: Ink4a/Arf-/- lymphomas; for Response rate to cyclopamine treatment: >80% growth inhibition at 5 μM
Description: as §1, §2

lymphoma cells [2] = assay: Annexin V staining, flow cytometry; format: cell-based, mouse; conditions: 5 μM
lymphoma cells [3] = assay: Cell cycle distribution of gated viable cells; format: cell-based, mouse; conditions: after 12 hours of treatment; 20.4% before
Gli1, Ptch1, Bcl2 = assay: Hh target expression in lymphoma cells (Western blot, quantitative RT-PCR); format: cell-based, mouse
Description: Western immunoblot: Whole-cell lysates were sonicated in 2% SDS/50 mM TrisHCl, pH8. Western blot using rabbit or goat polyclonal antibodies for Shh-N, c-Myc, Smo, Gli1 were performed as described. Shh-N, c-Myc and Smo antibodies were obtained from Santa Cruz Biotechnology, Gli1 (ab7523) antibody was obtained from Abcam Inc. (Cambridge, Mass.).
RT-PCR: Total cellular RNA was treated with DNase, reverse transcribed, amplified for 33 cycles at an annealing temperature of 55° C. Primers used were obtained from Integrated DNA Technologies (Coralville, Iowa).
To further substantiate a role for Hh/SMO signalling in Eμ-Myc and CDKN2a^−/− positive lymphoma we determined the expression of Hh pathway members in the lymphoma cells itself. Transcripts of all essential Hh pathway members (Smo, Ptc1, Ptc2, Gli1, and Gli2) were expressed in B-cell lymphomas, plasmoblastomas and plasmacytomas (FIG. 2E). Gli1 and Ptch represent direct target genes of the Hh pathway itself and are regulated at the transcriptional level by Hh signalling. […] Ptch1 transcript levels were decreased 10-fold within 18 h of pathway inhibition (FIG. 2G). Other target genes of the Hh pathway like Hip and Cyclin D1 could also be detected in the majority of lymphoma cells. […] All 3 Gli proteins have evolved specialized functions with distinct temporal and tissue-specific expression patterns. Unlike Gli1, which represents a direct transcriptional Hh-target gene, Gli2 and also Gli3 are considered latent transcriptional regulators activated by Hh signalling through modification of their N-terminal repressor domain.

[4] = test system: Myc lymphoma cells (p53−/−, Cdkn2a−/−, Bcl2+, Bax−/−, Caspase3−/−); conditions: for apoptosis: 5 μM, 48 hours
Excerpt: Genetically altered mice and culture of primary cells: Eμ-Myc mice (Adams et al., Nature 318: 533-53824, 1985), Cdkna^−/− mice (Serrano et al., Cell. 85:27-3725, 1996), Bax^−/− mice (The Jackson Laboratory, Bar Harbor, Me.), Caspase3^−/− mice (The Jackson laboratory), p53^−/− mice (The Jackson Laboratory) and Bcl2 tg mice (The Jackson laboratory) were maintained and genotyped as described. Eμ-Myc mice and Cdkn2a−/− mice were monitored for signs of disease including development of visible lymphomas or weight loss from more than 15%. Mice with terminal disease were sacrificed, bone marrow, spleen and lymph nodes were extracted and lymphoma cells were propagated under Witlock/Witte culture conditions. For maintained growth cells were transferred on bone marrow stroma from Cdkn2a−/− mice after 2-3 weeks of culture. For generation of lymphomas with defined genetic background, bone marrow from p53−/− mice, Caspase3−/− mice, Bax−/− mice, Cdkn2a−/− mice and Bcl2 tg mice was extracted and pMSCV c-Myc IRES GFP was overexpressed. Propagation of transformed lymphocytes was performed under Witlick/Witte culture conditions and lymphomas were maintained on stroma from Cdkn2a−/− mice.
To better understand which specific pathways are involved in the regulation of growth and survival through Hh signalling in lymphoma cells, lymphoma cell cultures were generated in multiple different genetic backgrounds in order to modify either apoptotic or failsafe pathways. Bone marrow extracted from wt C57BL/6, Bcl2 transgenic, Bax^−/− Caspase-3^−/−, CDKN2a^−/− and p53^−/− mice was infected with pMSCV-Myc-GFP and transformed lymphocyte cultures were obtained using Whitlock/Witte culture conditions in the absence of IL-7. […] Similar to cultures established from primary lymphomas, lymphocytes transformed by retroviral transduction were transferred to bone marrow stroma of CDKN2a^−/− mice for longer term culture.

Eμ-Myc lymphoma cells [5] = assay: Luciferased lymphoma cells injected into C57BL/6 mice, treatment from day 2; format: in vivo, mouse
Description: D: injection of 1 Mio luciferased lymphoma cells in C57B16 mice.
Mouse experiments: Black6 mice between 6 and 8 weeks of age were injected with 1 Mio luciferased lymphoma cells. […] Bioluminescence was measured with injection of […].
In order to verify the importance of the Hh pathway for lymphoma growth and expansion in mice, we injected 1e6 lymphoma cells expressing luciferase into syngeneic C57BL/6 mice. […] Luciferase levels were measured by bioluminescence imaging twice a week.

Structure (SMILES): CC1=C2C[C@H]3[C@@H](CC=C4C[C@@H](O)CC[C@@]43C)[C@@H]2CC[C@]12O[C@@H]1C[C@H](C)CN[C@H]1[C@H]2C [cyclopamine]
- IC50 (Eμ-Myc lymphoma cells [1]; Mus musculus, 48 h, read-out: IC50 (concentration needed for 50% of maximal inhibition)): 500 to 2000 nM
- clearance of lymphoma cells from the stromal layer (Eμ-Myc lymphoma cells [1]; Myc-Ly4, 5 μM, within 48 h): complete clearance
- Response rate to cyclopamine treatment (responsive/tested cultures) (Eμ-Myc lymphoma cells [1]; B-cell lymphoma): 8/10 and (8/10)
- Response rate to cyclopamine treatment (responsive/tested cultures) (Eμ-Myc lymphoma cells [1]; mixed lymphomas): 1/2
- Response rate to cyclopamine treatment (Eμ-Myc lymphoma cells [1]; mixed lymphomas): 50%
- Response rate to cyclopamine treatment (responsive/tested cultures) (Eμ-Myc lymphoma cells [1]; plasmacytoma): 6/9
- Response rate to cyclopamine treatment (Eμ-Myc lymphoma cells [1]; plasmacytoma): 66%
- Response rate to cyclopamine treatment (responsive/tested cultures) (Eμ-Myc lymphoma cells [1]; plasmoblastoma): 8/10 and (8/10)
- Response rate to cyclopamine treatment (Eμ-Myc lymphoma cells [1]; plasmoblastoma): 80%
- lymphomas sensitive to Hh pathway inhibition (Eμ-Myc lymphoma cells [1]; all Eμ-Myc-lymphomas, sensitivity = greater than 80% growth inhibition at 5 μM): 74.1%
- Response rate to cyclopamine treatment (responsive/tested cultures) (Cdkn2a−/− lymphoma cells; plasmacytoma): (2/4)
- Response rate to cyclopamine treatment (Cdkn2a−/− lymphoma cells; plasmacytoma): 50%
- Response rate to cyclopamine treatment (responsive/tested cultures) (Cdkn2a−/− lymphoma cells; plasmoblastoma): (2/4)
- Response rate to cyclopamine treatment (Cdkn2a−/− lymphoma cells; plasmoblastoma): 50%
- lymphomas sensitive to Hh pathway inhibition (Cdkn2a−/− lymphoma cells; all lymphomas from CDKN2a−/− mice, sensitivity = greater than 80% growth inhibition at 5 μM): 50%
- apoptotic cells (annexin V) (lymphoma cells [2]; after 48 hours): ~100%
- apoptotic cells (annexin V) (lymphoma cells [2]; within 12 hours): more than 50%
- G2/M phase of remaining viable cells (lymphoma cells [3]): 13.3%
- Bcl2 in Myc-lymphomas (Gli1, Ptch1, Bcl2; after cyclopamine treatment, Western blot): downregulated
- decrease of Ptch1 transcript levels (Gli1, Ptch1, Bcl2; within 18 h of pathway inhibition, 5 μM): 10 fold
- Gli1 protein in lymphoma cells (Gli1, Ptch1, Bcl2; within 24 hours, compared to actin control): reduction of detectable Gli1 protein
- cyclopamine induced apoptosis ([4]; Myc/Bax−/− cells): partial resistance
- cyclopamine induced apoptosis ([4]; Myc/Caspase 3−/− cells): partial resistance
- apoptosis ([4]; Myc/Cdkn2a−/− lymphoma cells): induced apoptosis
- apoptosis ([4]; Myc/p53−/− lymphoma cells): induced apoptosis
- median survival (Eμ-Myc lymphoma cells [5]; 25 mg/kg/day s.c., max 21 days, control group 16 days): 20 days
- signs of disease (bioluminescence imaging) (Eμ-Myc lymphoma cells [5]; 50 and 100 mg/kg/day s.c. from day 2, twelve days post-injection): only minimal signs of disease
- response (survival curves) (Eμ-Myc lymphoma cells [5]; lymphoma with in vitro resistance and overexpression of Gli3, 100 mg/kg/day): only minimal response
- response in vivo (Eμ-Myc lymphoma cells [5]; two additional lymphoma cells (1 plasmoblastoma and 1 B-cell lymphoma), similar conditions): responsive in vivo
